IC50 data for 15 compounds are collected here from patent US20210070748A1, “INHIBITORS OF BRUTONS TYROSINE KINASE” (Pharmacyclics LLC, priority 2015, published 2021).

Common to all, as to format: biochemical
One test deals with T1, ITK (Homo sapiens, UniProt Q08881).
T1 sequence (Q08881 1-620): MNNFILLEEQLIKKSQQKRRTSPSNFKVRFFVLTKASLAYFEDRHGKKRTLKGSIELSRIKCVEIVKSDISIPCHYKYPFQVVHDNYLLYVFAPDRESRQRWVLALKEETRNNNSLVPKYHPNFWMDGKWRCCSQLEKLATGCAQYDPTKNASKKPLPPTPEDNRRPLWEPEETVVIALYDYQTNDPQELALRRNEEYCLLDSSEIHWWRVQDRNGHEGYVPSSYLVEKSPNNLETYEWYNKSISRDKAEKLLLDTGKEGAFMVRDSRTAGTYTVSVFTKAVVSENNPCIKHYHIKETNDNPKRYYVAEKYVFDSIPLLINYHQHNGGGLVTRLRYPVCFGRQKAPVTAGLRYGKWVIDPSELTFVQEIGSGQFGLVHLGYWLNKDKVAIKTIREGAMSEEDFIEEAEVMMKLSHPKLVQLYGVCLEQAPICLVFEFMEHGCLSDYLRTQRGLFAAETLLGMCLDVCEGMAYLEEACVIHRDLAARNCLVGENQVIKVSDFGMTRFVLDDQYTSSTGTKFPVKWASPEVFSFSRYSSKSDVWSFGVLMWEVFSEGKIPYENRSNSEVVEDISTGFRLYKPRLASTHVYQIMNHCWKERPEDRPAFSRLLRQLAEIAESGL
The experiment in a line: Inhibition of a panel of kinases, in vitro HotSpot kinase assay: ITK. How it is done:
(§1) The degree of inhibition of a panel of kinases is determined using the in vitro HotSpot kinase assay (purified enzymes, ^33P-ATP, an appropriate substrate and 1 μM ATP).

In another test the target is T2, JAK3 (Homo sapiens, UniProt P52333).
T2 sequence (P52333 1-1124): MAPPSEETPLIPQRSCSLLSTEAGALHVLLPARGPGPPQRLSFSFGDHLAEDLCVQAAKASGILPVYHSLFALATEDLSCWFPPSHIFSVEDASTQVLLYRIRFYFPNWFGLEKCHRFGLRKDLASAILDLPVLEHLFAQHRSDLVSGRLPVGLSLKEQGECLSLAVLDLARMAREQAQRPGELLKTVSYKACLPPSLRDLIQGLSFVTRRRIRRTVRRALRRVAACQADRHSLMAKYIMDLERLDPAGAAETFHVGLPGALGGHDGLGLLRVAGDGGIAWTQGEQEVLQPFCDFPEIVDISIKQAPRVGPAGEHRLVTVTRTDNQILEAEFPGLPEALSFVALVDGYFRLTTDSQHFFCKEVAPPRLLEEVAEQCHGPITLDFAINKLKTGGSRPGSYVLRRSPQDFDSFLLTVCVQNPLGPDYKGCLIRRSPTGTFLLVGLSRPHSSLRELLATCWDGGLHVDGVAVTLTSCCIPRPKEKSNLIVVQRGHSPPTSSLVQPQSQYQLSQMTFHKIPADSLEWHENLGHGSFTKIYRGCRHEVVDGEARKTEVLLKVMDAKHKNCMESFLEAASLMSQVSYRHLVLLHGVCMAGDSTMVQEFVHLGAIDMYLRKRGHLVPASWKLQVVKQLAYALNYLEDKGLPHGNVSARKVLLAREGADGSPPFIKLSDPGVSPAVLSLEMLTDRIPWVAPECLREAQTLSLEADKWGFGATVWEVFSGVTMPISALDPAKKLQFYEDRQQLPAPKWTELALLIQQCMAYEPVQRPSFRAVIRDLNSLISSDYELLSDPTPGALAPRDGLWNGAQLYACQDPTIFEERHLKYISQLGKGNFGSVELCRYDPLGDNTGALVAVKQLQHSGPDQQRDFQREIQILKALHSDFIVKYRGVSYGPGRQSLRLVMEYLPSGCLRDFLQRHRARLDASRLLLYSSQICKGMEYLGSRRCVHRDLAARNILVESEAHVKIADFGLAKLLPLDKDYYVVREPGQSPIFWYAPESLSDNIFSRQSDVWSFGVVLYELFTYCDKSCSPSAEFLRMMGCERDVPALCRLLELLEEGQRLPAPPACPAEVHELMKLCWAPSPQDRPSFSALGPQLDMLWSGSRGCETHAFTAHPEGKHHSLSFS
The experiment in a line: Inhibition of a panel of kinases, in vitro HotSpot kinase assay: JAK3. Conditions: read-out: IC50 JAK3.

A further test has as its target LCK (Homo sapiens, UniProt P06239). The experiment in a line: Inhibition of a panel of kinases, in vitro HotSpot kinase assay: LCK. Conditions: read-out: IC50 LCK.
Another test addresses EGFR (Homo sapiens, UniProt P00533). The experiment in a line: Inhibition of a panel of kinases, in vitro HotSpot kinase assay: EGFR. How it is done:
as §1

The mark [1] stands for this setting: D-compounds panel data, 1 μM ATP.

Like-named read-outs stand apart in the source and are kept apart here.

Chain of LCK (P06239 whole entry): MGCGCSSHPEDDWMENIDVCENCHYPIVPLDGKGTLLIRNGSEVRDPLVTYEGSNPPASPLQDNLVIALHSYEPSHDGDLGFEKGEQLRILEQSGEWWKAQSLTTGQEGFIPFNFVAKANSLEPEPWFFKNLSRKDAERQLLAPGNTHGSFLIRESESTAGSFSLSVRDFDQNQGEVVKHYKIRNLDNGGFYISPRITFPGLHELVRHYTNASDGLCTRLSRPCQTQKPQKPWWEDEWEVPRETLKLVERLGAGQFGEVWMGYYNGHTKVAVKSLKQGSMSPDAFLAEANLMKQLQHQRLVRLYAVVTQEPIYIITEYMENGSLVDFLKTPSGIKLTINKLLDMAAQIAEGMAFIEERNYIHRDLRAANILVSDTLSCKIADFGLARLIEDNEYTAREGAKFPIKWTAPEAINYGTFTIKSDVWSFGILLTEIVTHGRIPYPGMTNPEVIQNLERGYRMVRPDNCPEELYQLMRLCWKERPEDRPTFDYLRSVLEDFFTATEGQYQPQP
Chain of EGFR (P00533 25-1210): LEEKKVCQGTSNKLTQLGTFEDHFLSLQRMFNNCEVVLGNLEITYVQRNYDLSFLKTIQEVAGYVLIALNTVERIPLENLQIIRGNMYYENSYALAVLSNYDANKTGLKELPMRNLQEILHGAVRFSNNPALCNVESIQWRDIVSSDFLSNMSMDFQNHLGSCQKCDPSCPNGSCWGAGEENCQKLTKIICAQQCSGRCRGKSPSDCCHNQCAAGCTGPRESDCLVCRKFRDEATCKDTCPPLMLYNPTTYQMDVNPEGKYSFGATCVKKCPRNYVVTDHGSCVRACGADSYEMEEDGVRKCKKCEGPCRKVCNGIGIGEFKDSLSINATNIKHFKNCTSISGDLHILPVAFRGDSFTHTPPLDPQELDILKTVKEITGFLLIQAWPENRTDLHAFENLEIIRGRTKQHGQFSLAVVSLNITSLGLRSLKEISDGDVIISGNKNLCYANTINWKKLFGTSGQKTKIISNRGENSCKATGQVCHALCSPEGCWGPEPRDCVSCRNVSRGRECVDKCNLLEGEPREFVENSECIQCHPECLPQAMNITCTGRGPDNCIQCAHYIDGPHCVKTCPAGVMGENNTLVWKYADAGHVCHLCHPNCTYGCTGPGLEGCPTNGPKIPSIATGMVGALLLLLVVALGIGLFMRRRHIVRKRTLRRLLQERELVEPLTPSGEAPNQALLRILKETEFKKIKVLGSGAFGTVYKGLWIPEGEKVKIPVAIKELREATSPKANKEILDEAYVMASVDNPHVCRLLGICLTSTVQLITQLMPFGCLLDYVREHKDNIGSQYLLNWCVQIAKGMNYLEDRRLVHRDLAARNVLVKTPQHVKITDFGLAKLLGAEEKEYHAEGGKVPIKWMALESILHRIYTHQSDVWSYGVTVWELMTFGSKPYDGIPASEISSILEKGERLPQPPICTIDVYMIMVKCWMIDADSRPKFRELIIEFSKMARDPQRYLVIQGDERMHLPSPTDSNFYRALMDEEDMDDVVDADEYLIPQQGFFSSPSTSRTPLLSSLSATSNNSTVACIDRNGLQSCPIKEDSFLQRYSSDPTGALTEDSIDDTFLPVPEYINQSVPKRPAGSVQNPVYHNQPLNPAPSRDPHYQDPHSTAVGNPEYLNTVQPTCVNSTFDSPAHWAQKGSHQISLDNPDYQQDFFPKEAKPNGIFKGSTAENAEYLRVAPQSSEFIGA

Usually IC50 stands for the concentration needed to halve the response being measured. Take `Cc1cc(Nc2nc(N3C[C@H](NC(=O)c4ccc(C5CC5)cc4F)CC[C@H]3C)cnc2C(N)=O)sn1` [Example D-79, 5-[(2R,5R)-5-(4-cyclopropyl-2-fluorobenzamido)-2-methylpiperidin-1-yl]-3-[(3-methyl-1,2-thiazol-5-yl)amino]pyrazine-2-carboxamide]: the IC50 on ITK (setting [1]) is above 10000 nM; at JAK3 (setting [1]) it was 1000 to 10000 nM; on LCK (setting [1]), 1000 to 10000 nM; against EGFR (setting [1]), 1000 to 10000 nM.
Regarding `CN(C)C(=O)N[C@H]1CCCN(c2cnc(C(N)=O)c(Nc3ccc4ncccc4c3)n2)[C@H]1CO` (racemic) [Example D-65, cis 5-[3-[(dimethylcarbamoyl)amino]-2-(hydroxymethyl)piperidin-1-yl]-3-[(quinolin-6-yl)amino]pyrazine-2-carboxamide], the IC50 on ITK (setting [1]), on JAK3 (setting [1]), on LCK (setting [1]) and against EGFR (setting [1]) was above 10000 nM throughout.
As to `C=CC(=O)N1CCC[C@@H](Nc2cnc(C(N)=O)c(Nc3ccc(C4CCN(C5CCCC5)CC4)cc3)n2)C1` [Example E-108, (R)-5-(1-acryloylpiperidin-3-ylamino)-3-(4-(1-cyclopentylpiperidin-4-yl)phenylamino)pyrazine-2-carboxamide], the IC50 against ITK (E compounds, Table 17) is at most 10 nM; at JAK3 (E compounds, Table 17) it was below 10 nM; at LCK (E compounds, Table 17), 10 to 100 nM; on EGFR (E compounds, Table 17) it was at most 10 nM.
For the compound `C[C@@H]1[C@H](NC(=O)c2ccc(C(C)(C)C#N)cc2)CCCN1c1cnc(C(N)=O)c(Nc2cnn(C)c2)n1` [Example D-88, 5-[(2R,3R)-3-[4-(1-cyano-1-methylethyl)benzamido]-2-methylpiperidin-1-yl]-3-[(1-methyl-1H-pyrazol-4-yl)amino]pyrazine-2-carboxamide], the IC50 against ITK (setting [1]) lay in the range of 100 to 1000 nM; on JAK3 (setting [1]), 1000 to 10000 nM; on LCK (setting [1]) it was 100 to 1000 nM; on EGFR (setting [1]), 1000 to 10000 nM.
As for `Cc1cc(Nc2nc(N3C[C@@H](NC(=O)c4ccc(C5CC5)cc4F)CC[C@H]3C)cnc2C(N)=O)sn1` [Example D-80, 5-[(2R,5S)-5-(4-cyclopropyl-2-fluorobenzamido)-2-methylpiperidin-1-yl]-3-[(3-methyl-1,2-thiazol-5-yl)amino]pyrazine-2-carboxamide], the IC50 was above 10000 nM on ITK (setting [1]), 1000 to 10000 nM on JAK3 (setting [1]), 100 to 1000 nM on LCK (setting [1]) and 100 to 1000 nM against EGFR (setting [1]).
`Cc1cc(Nc2nc(N3CCC[C@@H](NC(=O)N(C)C)[C@H]3CO)cnc2C(N)=O)sn1` [Example D-67, 5-[(2S,3R)-3-[(dimethylcarbamoyl)amino]-2-(hydroxymethyl)piperidin-1-yl]-3-[(3-methyl-1,2-thiazol-5-yl)amino]pyrazine-2-carboxamide]: the IC50 at ITK (setting [1]) lay in the range of 1000 to 10000 nM; on JAK3 (setting [1]), 1000 to 10000 nM; at LCK (setting [1]), 100 to 1000 nM; against EGFR (setting [1]), 100 to 1000 nM.
Take `C[C@@H]1[C@H](NC(=O)c2ccc(C3CC3)cc2)CCCN1c1cnc(C(N)=O)c(Nc2ccc3nccn3c2)n1` [Example D-83, 5-[(2R,3R)-3-(4-cyclopropylbenzamido)-2-methylpiperidin-1-yl]-3-({imidazo[1,2-a]pyridin-6-yl}amino)pyrazine-2-carboxamide]: the IC50 at ITK (setting [1]) is 1000 to 10000 nM; on JAK3 (setting [1]) it was 1000 to 10000 nM; at LCK (setting [1]), 1000 to 10000 nM; on EGFR (setting [1]) it was above 10000 nM.
Turning to `Cc1cc(Nc2nc(N3C[C@@H](NC(=O)N(C)C)CC[C@H]3C)cnc2C(N)=O)sn1` [Example D-75, 5-[(2R,5S)-5-[(dimethylcarbamoyl)amino]-2-methylpiperidin-1-yl]-3-[(3-methyl-1,2-thiazol-5-yl)amino]pyrazine-2-carboxamide], the half-maximal inhibitory concentration (IC50) was in the range of 1000 to 10000 nM against ITK (setting [1]), 100 to 1000 nM on JAK3 (setting [1]), 100 to 1000 nM on LCK (setting [1]) and 100 to 1000 nM against EGFR (setting [1]).
With `C[C@@H]1[C@H](NC(=O)c2ccc3c(c2)C(C)(C)CO3)CCCN1c1cnc(C(N)=O)c(Nc2cnn(C)c2)n1` [Example D-55, 5-[(2R,3R)-3-(3,3-dimethyl-2,3-dihydro-1-benzofuran-5-amido)-2-methylpiperidin-1-yl]-3-[(1-methyl-1H-pyrazol-4-yl)amino]pyrazine-2-carboxamide], the IC50 at ITK (setting [1]) is 100 to 1000 nM; at JAK3 (setting [1]), above 10000 nM; on LCK (setting [1]) it was 10 to 100 nM; against EGFR (setting [1]) it was 1000 to 10000 nM.
For `NC(=O)c1ncc(N2CCC[C@@H](NC(=O)c3ccc(C4CC4)cc3F)C2)nc1Nc1cc(-c2ccccc2)ns1` [Example D-3, 5-[(3R)-3-(4-cyclopropyl-2-fluorobenzamido)piperidin-1-yl]-3-[(3-phenyl-1,2-thiazol-5-yl)amino]pyrazine-2-carboxamide], in that order: above 10000 nM, above 10000 nM, above 10000 nM and above 10000 nM.
Taken in the same sequence, the figures for `C[C@@H]1[C@H](NC(=O)c2ccc(C3CC3)cc2)CCCN1c1cnc(C(N)=O)c(Nc2cnc(N3CCN(C)CC3)nc2)n1` [Example D-318, 5-[(2R,3R)-3-(4-cyclopropylbenzamido)-2-methylpiperidin-1-yl]-3-{[2-(4-methylpiperazin-1-yl)pyrimidin-5-yl]amino}pyrazine-2-carboxamide] were 100 to 1000 nM, above 10000 nM, 100 to 1000 nM and above 10000 nM.
Taken in the same sequence, the figures for `Cc1ncc(Nc2nc(N3CCC[C@@H](NC(=O)c4ccc(C5CC5)cc4F)C3)cnc2C(N)=O)s1` [Example D-4, 5-[(3R)-3-(4-cyclopropyl-2-fluorobenzamido)piperidin-1-yl]-3-[(2-methyl-1,3-thiazol-5-yl)amino]pyrazine-2-carboxamide] were 1000 to 10000 nM, 1000 to 10000 nM, above 10000 nM and above 10000 nM.
With `Cn1cc(Nc2nc(N3CCC[C@@H](NC(=O)c4ccc(C(C)(C)O)cc4)C3)nnc2C(N)=O)cn1` [Example D-39, 3-[(3R)-3-[4-(2-hydroxypropan-2-yl)benzamido]piperidin-1-yl]-5-[(1-methyl-1H-pyrazol-4-yl)amino]-1,2,4-triazine-6-carboxamide], the IC50 against ITK (setting [1]) was 100 to 1000 nM; on JAK3 (setting [1]), 100 to 1000 nM; on LCK (setting [1]), 100 to 1000 nM; against EGFR (setting [1]), above 10000 nM.
In the case of `C[C@@H]1[C@H](NC(=O)c2ccc(-c3ncccn3)cc2)CCCN1c1cnc(C(N)=O)c(Nc2cnn(C)c2)n1` [Example D-85, 3-[(1-methyl-1H-pyrazol-4-yl)amino]-5-[(2R,3R)-2-methyl-3-[4-(pyrimidin-2-yl)benzamido]piperidin-1-yl]pyrazine-2-carboxamide], the half-inhibitory concentration (IC50) against ITK (setting [1]), at JAK3 (setting [1]), on LCK (setting [1]) and against EGFR (setting [1]) was 100 to 1000 nM in each case.
For `C[C@@H]1[C@H](NC(=O)c2ccc(C3CC3)cc2)CCCN1c1cnc(C(N)=O)c(Nc2ccc(C3CCOCC3)cc2)n1` [Example D-317, 5-[(2R,3R)-3-(4-cyclopropylbenzamido)-2-methylpiperidin-1-yl]-3-{[4-(oxan-4-yl)phenyl]amino}pyrazine-2-carboxamide], the concentration for half-maximal inhibition (IC50) against ITK (setting [1]) is above 10000 nM; on JAK3 (setting [1]), 1000 to 10000 nM; on LCK (setting [1]), above 10000 nM; on EGFR (setting [1]), above 10000 nM.
